Test results reported in patent publication US20110111437A1, “Biomarkers For Prognosis of Pulmonary Diseases” (THE UNIVERSITY OF PITTSBURGH-OF THE COMMONWEALTH SYSTEM OF …, priority 2009, published 2011).

Tested on: CD4+CD28null T cells from lung transplant recipients with BOS
Assay: Inhibition of proliferation by cyclosporine A (BrdU incorporation, anti-CD3 stimulation)
Assay type: cell-based, human
Conditions: preliminary findings, n=2 subjects
Description: Inhibition of Proliferation by Cyclosporine A (CsA) Segregated CD28+ and CD28null CD4 T-cell subpopulations were individually cultured in duplicate wells coated with anti-CD3 monoclonal antibody (OKT3) (see above). Autologous nurse cells, positively selected during the initial CD4 T-cell isolations (see above) were added in a 3:1 nurse cell:CD4 T-cell ratio. In order to eliminate potential confounding by CD4dim monocytes, all CD4+ cells were depleted from the nurse cells (<<1% residual), prior to their use in cultures, by positive selection with anti-CD4-coated magnetic beads (Invitrogen, Carlsbad, Calif.). Cyclosporine (Novartis, East Hanover, N.J.) to a final concentration of 100 ng/ml was added to half the wells. Proliferation within the respective CD4 subpopulations were measured by bromodeoxyuridine (BrdU) incorporation, using reagents and methods supplied in a kit (BD Pharmingen). In brief, BrdU in a final concentration of 10 μM was added to cultures two days prior to their harvests. After 5±1 days of culture, cells were harvested from wells and stained with anti-CD4, fixed and permeabilized, and then incubated with anti-BrdU and 7-amino-actinomycin (7-AAD). The proportion of proliferating CD4+ T cells (BrdU+) among the viable cells (≧diploid DNA content) was determined by flow cytometry.

In the case of `C=CC[C@@H]1/C=C(\C)C[C@H](C)C[C@H](OC)[C@H]2O[C@@](O)(C(=O)C(=O)N3CCCC[C@H]3C(=O)O[C@H](/C(C)=C/[C@@H]3CC[C@@H](O)[C@H](OC)C3)[C@H](C)[C@@H](O)CC1=O)[C@H](C)C[C@@H]2OC` [tacrolimus], the “resistance of the cells to the drug” value is reported as “relatively resistant”.
